Laboratory results taken from ChEMBL document CHEMBL6078662, “Discovery of 3-(2-aminobenzo[d]thiazol-5-yl) benzamide derivatives as potent anticancer agents via ROR1 inhibition” (Bioorg Med Chem, 2025).
The source made the active and inactive calls. No cut-off for these calls is given here.

What was measured:
[1] = Cytotoxicity against human MRC5 cells assessed as inhibition of cell proliferation incubated for 72 hrs by MTT assay; assay type: toxicity, cell-based
PC-9 = assay: Antiproliferative activity against human PC-9 cells assessed as inhibition of cell proliferation incubated for 72 hrs by MTT assay; assay type: functional, cell-based; conditions: for IC50: PC-9, 72 h
[2] = Selectivity index, ratio of IC50 for cytotoxicity against human MRC5 cells assessed as inhibition of cell proliferation to IC50 for antiproliferative activity against human NCI-H1975 cells assessed as inhibition of cell proliferation; assay type: toxicity, cell-based; conditions: MRC5 cells and NCI-H1975 cells, read-out: Ratio IC50
NCI-H1975 [3] = assay: Antiproliferative activity against human NCI-H1975 cells assessed as inhibition of cell proliferation incubated for 72 hrs by MTT assay; assay type: functional, cell-based; conditions: for IC50: NCI-H1975, 72 h
A549 = assay: Antiproliferative activity against human A549 cells assessed as inhibition of cell proliferation incubated for 72 hrs by MTT assay; assay type: functional, cell-based; conditions: for IC50: A549, 72 h
NCI-H1975 [4] = assay: Inhibition of cell migration in human NCI-H1975 cells assessed as inhibition of wound closure measured at 24 to 48 hrs by wound healing assay; assay type: functional, cell-based; conditions: dose 1.75-7 µM, time 24-48 hrs
NCI-H1975 [5] = assay: Induction of cell cycle arrest in human NCI-H1975 cells assessed as reduction in c-Myc expression incubated for 24 hrs by Western blot analysis; assay type: functional, cell-based; conditions: dose 1.75-7 µM
[6] = biological target: MAP kinase p38 (Homo sapiens) (UniProt O15264+Q15759+Q16539+P53778); assay: Inhibition of p38 phosphorylation in human NCI-H1975 cells upto 7 uM incubated for 48 hrs by Western blot analysis; assay type: cell-based
NCI-H1975 [7] = assay: Effect on Vimentin expression level in human NCI-H1975 cells incubated for 48 hrs by Western blot analysis; assay type: functional, cell-based; conditions: dose <= 7.0 µM
NCI-H1975 [8] = assay: Inhibition of SRC phosphorylation in human NCI-H1975 cells upto 7 uM incubated for 48 hrs by Western blot analysis; assay type: cell-based
NCI-H1975 [9] = assay: Effect on ZEB1 expression level in human NCI-H1975 cells incubated for 48 hrs by Western blot analysis; assay type: functional, cell-based; conditions: dose <= 7.0 µM
NCI-H1975 [10] = assay: Inhibition of colony formation in human NCI-H1975 cells assessed as decrease in number of colonies incubated for 72 hrs by crystal violet staining based assay; assay type: functional, cell-based; conditions: dose 1.75-7 µM
NCI-H1975 [11] = assay: Induction of cell cycle arrest in human NCI-H1975 cells assessed as decrease in accumulation of cells at G2/M phase incubated for 24 hrs by PI staining based flow cytometry analysis; assay type: functional; conditions: dose 1.75-7 µM
NCI-H1975 [12] = assay: Effect on MMP2 expression level in human NCI-H1975 cells incubated for 48 hrs by Western blot analysis; assay type: functional, cell-based; conditions: dose <= 7.0 µM
NCI-H1975 [13] = assay: Anti-invasive activity against human NCI-H1975 cells assessed as reduction in number of invaded cells at 7 uM incubated for 24 hrs by crystal violet staining based light microscopic analysis; assay type: functional, cell-based
NCI-H1975 [14] = assay: Antiproliferative activity against human NCI-H1975 cells assessed as suppression of cell growth incubated for 72 hrs by MTT assay; assay type: functional, cell-based; conditions: dose 7.0 µM
[15] = biological target: Inactive tyrosine-protein kinase transmembrane receptor ROR1 (Homo sapiens) (UniProt Q01973); assay: Inhibition of ROR1 phosphorylation in human NCI-H1975 cells upto 7 uM incubated for 48 hrs by Western blot analysis; assay type: cell-based
NCI-H1975 [16] = assay: Induction of cell cycle arrest in human NCI-H1975 cells assessed as accumulation of cells at G1 phase incubated for 24 hrs by PI staining based flow cytometry analysis; assay type: functional; conditions: dose 1.75-7 µM
NCI-H1975 [17] = assay: Inhibition of cell migration in human NCI-H1975 cells assessed as inhibition of wound closure at 1.75 to 7 uM measured at 24 to 48 hrs by wound healing assay; assay type: functional, cell-based; conditions: dose 1.75-7 µM, time 24-48 hrs
[18] = Half life in male Sprague-Dawley rat at 10 mg/kg, po measured upto 24 hrs by LC-MS/MS analysis; assay type: ADME, organism-based; conditions: in vivo
[19] = MRT (0 to infinity) in male Sprague-Dawley rat at 10 mg/kg, po measured upto 24 hrs by LC-MS/MS analysis; assay type: ADME, organism-based; conditions: in vivo
NCI-H1975 [20] = assay: Effect on E-cadherin expression level in human NCI-H1975 cells incubated for 48 hrs by Western blot analysis; assay type: functional, cell-based; conditions: dose <= 7.0 µM
NCI-H1975 [21] = assay: Induction of cell cycle arrest in human NCI-H1975 cells assessed as reduction in cyclin-D1 expression incubated for 24 hrs by Western blot analysis; assay type: functional, cell-based; conditions: dose 1.75-7 µM
[22] = Tmax in male Sprague-Dawley rat at 10 mg/kg, po measured upto 24 hrs by LC-MS/MS analysis; assay type: ADME, organism-based; conditions: in vivo
NCI-H1975 [23] = assay: Effect on N-cadherin expression level in human NCI-H1975 cells incubated for 48 hrs by Western blot analysis; assay type: functional, cell-based; conditions: dose <= 7.0 µM
[24] = biological target: Inactive tyrosine-protein kinase transmembrane receptor ROR1 (Homo sapiens) (UniProt Q01973); assay: Binding affinity to ROR1 in human NCI-H1975 cells assessed as protection of pronase-mediated protein degradation preincubated with compound for 1 hr followed by pronase E addition and measured after 10 mins by DARTS assay; assay type: cell-based; conditions: dose <= 100.0 µM, time 70.0 min
[25] = AUC (0 to infinity) in male Sprague-Dawley rat at 10 mg/kg, po measured upto 24 hrs by LC-MS/MS analysis; assay type: ADME, organism-based; conditions: in vivo
[26] = Cmax in male Sprague-Dawley rat at 10 mg/kg, po measured upto 24 hrs by LC-MS/MS analysis; assay type: ADME, organism-based; conditions: in vivo
[27] = biological target: Inactive tyrosine-protein kinase transmembrane receptor ROR1 (Homo sapiens) (UniProt Q01973); assay: Binding affinity to ROR1 in human NCI-H1975 cells assessed as increase in thermal stability at 10 uM at 57 to 62 degreeC incubated for 4 hrs by CETSA analysis; assay type: cell-based
NCI-H1975 [28] = assay: Induction of cell cycle arrest in human NCI-H1975 cells assessed as reduction in CDK2 expression incubated for 24 hrs by Western blot analysis; assay type: functional, cell-based; conditions: dose 1.75-7 µM
NCI-H1975 [29] = assay: Inhibition of cell migration in human NCI-H1975 cells assessed as inhibition of wound closure at 1.75 to 7 uM by wound healing assay; assay type: functional, cell-based; conditions: dose 1.75-7 µM, time 24-48 hrs

Sequence of Inactive tyrosine-protein kinase transmembrane receptor ROR1 (Homo sapiens) (Q01973 whole entry): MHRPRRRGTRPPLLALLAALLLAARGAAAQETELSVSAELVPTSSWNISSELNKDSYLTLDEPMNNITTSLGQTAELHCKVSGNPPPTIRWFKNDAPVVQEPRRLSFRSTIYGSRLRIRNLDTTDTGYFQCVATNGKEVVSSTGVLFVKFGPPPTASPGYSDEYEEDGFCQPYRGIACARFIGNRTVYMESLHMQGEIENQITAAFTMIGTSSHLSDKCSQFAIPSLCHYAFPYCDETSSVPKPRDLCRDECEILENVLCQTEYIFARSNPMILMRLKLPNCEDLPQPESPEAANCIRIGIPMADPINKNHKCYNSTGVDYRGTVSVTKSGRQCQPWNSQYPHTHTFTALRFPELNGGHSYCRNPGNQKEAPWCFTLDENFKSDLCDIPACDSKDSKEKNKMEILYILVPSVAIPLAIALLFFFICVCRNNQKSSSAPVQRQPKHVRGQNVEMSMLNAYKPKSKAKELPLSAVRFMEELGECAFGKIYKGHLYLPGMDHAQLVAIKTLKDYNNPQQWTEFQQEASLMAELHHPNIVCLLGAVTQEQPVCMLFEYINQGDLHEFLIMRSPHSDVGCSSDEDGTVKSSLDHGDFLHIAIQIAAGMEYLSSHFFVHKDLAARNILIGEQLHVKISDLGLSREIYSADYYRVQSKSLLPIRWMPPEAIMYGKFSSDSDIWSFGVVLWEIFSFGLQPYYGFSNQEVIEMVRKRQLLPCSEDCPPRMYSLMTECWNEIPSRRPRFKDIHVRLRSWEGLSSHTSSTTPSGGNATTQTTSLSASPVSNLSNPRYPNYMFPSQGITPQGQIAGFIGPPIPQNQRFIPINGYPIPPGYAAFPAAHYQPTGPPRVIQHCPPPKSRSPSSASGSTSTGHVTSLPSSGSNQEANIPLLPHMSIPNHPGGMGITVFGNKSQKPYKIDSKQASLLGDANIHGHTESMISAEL

Compound: CC(=O)Nc1nc2cc(-c3ccc4ncn(Cc5ccccc5)c(=O)c4c3)ccc2[nH]1
- IC50 at 72 h [1]: 1.87 µM
- IC50 (PC-9): 0.91 µM
- selectivity ratio [2]: 1.83
- IC50 (NCI-H1975 [3]): 1.02 µM
- IC50 (A549): 0.83 µM

Compound: COCCNC(=O)c1cccc(-c2ccc3sc(NC(C)=O)nc3c2)c1
- IC50 at 72 h [1]: > 80 µM
- IC50 (PC-9): > 40 µM
- IC50 (NCI-H1975 [3]): > 40 µM
- IC50 (A549): > 40 µM

Compound: CCC(=O)Nc1nc2cc(-c3cccc(C(=O)NCc4ccc(OC)cc4)c3)ccc2s1
- IC50 at 72 h [1]: > 80 µM
- IC50 (PC-9): > 40 µM
- IC50 (NCI-H1975 [3]): > 40 µM
- IC50 (A549): > 40 µM

Compound: COc1ccc(CNC(=O)c2cccc(-c3ccc4sc(NC(=O)C(C)(C)C)nc4c3)c2)cc1
- IC50 at 72 h [1]: > 80 µM
- IC50 (PC-9): > 40 µM
- selectivity ratio [2]: > 6.52
- IC50 (NCI-H1975 [3]): 12.3 µM
- IC50 (A549): > 40 µM

Compound: COCCNC(=O)c1cccc(-c2ccc3sc(NC(=O)c4ccccc4)nc3c2)c1
- IC50 at 72 h [1]: > 80 µM
- IC50 (PC-9): > 40 µM
- selectivity ratio [2]: > 4.52
- IC50 (NCI-H1975 [3]): 17.7 µM
- IC50 (A549): > 40 µM

Compound: CCC(=O)Nc1nc2cc(-c3cccc(C(=O)NCCOC)c3)ccc2s1
- IC50 at 72 h [1]: > 80 µM
- IC50 (PC-9): > 40 µM
- IC50 (NCI-H1975 [3]): > 40 µM
- IC50 (A549): > 40 µM

Compound: CNc1cccc(NC(=O)c2ccc(C)c(C#Cc3cnc4cccnn34)c2)c1
- IC50 (NCI-H1975 [3]): 66.7 µM
- IC50 (A549): 27.5 µM

Compound: Cc1ccc(CNC(=O)c2cccc(-c3ccc4sc(NC(=O)C5CCCCC5)nc4c3)c2)cc1
- IC50 at 72 h [1]: > 80 µM
- IC50 (PC-9): > 40 µM
- IC50 (NCI-H1975 [3]): > 40 µM
- IC50 (A549): > 40 µM

Compound: CC(=O)Nc1nc2cc(-c3cccc(C(=O)NCCC(C)C)c3)ccc2s1
- IC50 at 72 h [1]: > 80 µM
- IC50 (PC-9): 24.7 µM
- IC50 (NCI-H1975 [3]): > 40 µM
- IC50 (A549): > 40 µM

Compound: Cc1ccc(CNC(=O)c2cccc(-c3ccc4sc(NC(=O)C(C)(C)C)nc4c3)c2)cc1
- IC50 at 72 h [1]: > 80 µM
- IC50 (PC-9): > 40 µM
- selectivity ratio [2]: > 6.43
- IC50 (NCI-H1975 [3]): 12.4 µM
- IC50 (A549): > 40 µM

Compound: CC(C)CCNC(=O)c1cccc(-c2ccc3sc(NC(=O)c4ccc(F)cc4)nc3c2)c1
- inhibition (NCI-H1975 [4]): Dose-dependent-effect
- Activity (NCI-H1975 [5]): Dose-dependent-effect
- inhibition [6]: Active
- IC50 at 72 h [1]: > 80 µM
- Activity (NCI-H1975 [7]): Dose-dependent-effect
- IC50 (PC-9): 8.11 µM
- Activity (PC-9; dose <= 40.0 µM): Dose-dependent-effect
- inhibition (NCI-H1975 [8]): Active
- Activity (NCI-H1975 [9]): Dose-dependent-effect
- inhibition (NCI-H1975 [10]): Dose-dependent-effect
- Activity (NCI-H1975 [11]): Dose-dependent-effect
- Activity (NCI-H1975 [12]): Dose-dependent-effect
- selectivity ratio [2]: > 22.9
- Activity (NCI-H1975 [13]): Active
- Activity (NCI-H1975 [14]): Dose-dependent-effect
- inhibition [15]: Active
- Activity (NCI-H1975 [16]): Dose-dependent-effect
- inhibition (NCI-H1975 [17]): Active
- half-life [18]: 10 h
- MRT inf [19]: 18.7 h
- Activity (NCI-H1975 [20]): Dose-dependent-effect
- Activity (NCI-H1975 [21]): Dose-dependent-effect
- Tmax [22]: 2 h
- Activity (NCI-H1975 [23]): Dose-dependent-effect
- IC50 (NCI-H1975 [3]): 3.5 µM
- Activity (NCI-H1975 [3]; dose <= 40.0 µM): Dose-dependent-effect
- IC50 (A549): 18.2 µM
- Activity (A549; dose <= 40.0 µM): Dose-dependent-effect
- Activity [24]: Dose-dependent-effect
- AUC(0-inf) [25]: 12400 ng·h/mL
- Cmax [26]: 1120 ng/mL
- Activity [27]: Active
- Activity (NCI-H1975 [28]): Dose-dependent-effect
- inhibition (NCI-H1975 [29]): Time-dependent-effect
